Results published in patent US20080058373A1, “Compositions and Methods for Treating or Preventing Glaucoma or Progression Thereof” (priority 2006, published 2008).
“And” between values parts separate entries of the source, which are not always exact repeats. Identical values can stand only once.

Key:
[1] = test system: rabbit eye (anterior chamber paracentesis); experiment: Pupillary diameter measurement, rabbit paracentesis model; assay type: in vivo; conditions: 0.1% topical
Experimental: (§1) Each rabbit was placed in a restraint device and tagged with the alphanumeric code. The formulations were instilled (50 μl) into the conjunctival sac of both eyes 180, 120, 90 and 30 min before the first paracentesis; then 15, 30, 90 min after the first paracentesis. To perform the first paracentesis the animals were anaesthetized by intravenous injection of 5 mg/kg Zoletil® (Virbac; 2.5 mg/kg tiletamine HCl and 2.5 mg/kg zolazepam HCl) and one drop of local anesthetic (Novesina®, Novartis) was administered to the eye. Anterior chamber paracentesis was performed with a 26 G needle attached to a tuberculin syringe; the needle was introduced into the anterior chamber through the cornea, taking care not to damage the tissues. Two hours after the first paracentesis, the animals were sacrificed with 0.4 ml Tanax® (Intervet International B.V.) and the second paracentesis was performed. About 100 μl of aqueous humor were removed at the second paracentesis. Aqueous humor was immediately split in four aliquots and stored at −80° C. until analysis. Then both eyes were enucleated and the iris-ciliary body was carefully excised, placed in polypropylene tubes, and stored at −80° C. until analysis.
The pupillary diameter of both eyes was measured with a Castroviejo caliper 180 min and 5 min before the first paracentesis and 5 min before the second paracentesis.

[2] = test system: rabbit eye (anterior chamber paracentesis); experiment: Clinical evaluation by slit lamp (clinical score), rabbit paracentesis model; assay type: in vivo; set-up: key to Clinical Score −180 min / Clinical Score −5 min / Clinical Score +115 min: 0=normal; 1=discrete dilatation of iris and conjunctival vessels; 2=moderate dilatation of iris and conjunctival vessels; 3=intense iridal hyperemia with flare in the anterior chamber; 4=intense iridal hyperemia with flare in the anterior chamber and presence of fibrinous exudates; conditions: 0.1% topical
Prostaglandin E2 (PGE2) = Prostaglandin E2 (PGE2) measurement in aqueous humor, rabbit paracentesis model; assay type: in vivo; conditions: 0.1% topical; second paracentesis; group mean
Experimental: as §1
For the quantitative determination of PGE2 in the aqueous humor we used the PGE2 Immunoassay kit (R&D Systems; Cat.No. KGE004; Lot.No. 240010). Eleven microliters or 16 μl of aqueous humor were diluted to 110 μl or 160 μl with the calibrator diluent solution provided with the kit. One hundred microliters of samples and of standards were load into a 96-well plate and recorded in a plate layout. Samples were treated following the assay procedure described in the kit. A microplate reader (GDV, Italy; model DV 990 B/V6) set at 450 nm (wavelength correction at 540 nm) was used for making the calibration and analyzing the samples.

protein in aqueous humor = experiment: Protein measurement in aqueous humor, rabbit paracentesis model; assay type: in vivo; conditions: 0.1% topical
Experimental: as §1
For protein concentration determination in the aqueous humor we used the Protein Quantification Kit (Fluka; Cat.No. 77371; Lot.No. 1303129). Five microliters of aqueous humor were diluted to 100 μl with water. Twenty microliters of samples and of standards were load into a 96-well plate and recorded in a plate layout. Samples were treated following the assay procedure described in the kit. A microplate reader (GDV, Italy; model DV 990 B/V6) set at 670 nm was used for making the calibration and analyzing the samples.

Leukocytes (PMN) = Leukocytes (PMN) measurement in aqueous humor, rabbit paracentesis model; assay type: in vivo; conditions: 0.1% topical; second paracentesis; group mean
Experimental: as §1
For the determination of the number of leukocytes we used a haemocytometer (Improved Neubauer Chamber; Bright-line, Hausser Scientific) and a Polyvar 2 microscope (Reichert-Jung).

[3] = test system: New Zealand White rabbits; experiment: Ophthalmic observations (slit lamp, McDonald Shadduck system) in the rabbit IOP study; assay type: in vivo; set-up: key to Conjunctival congestion Score: A flushed, reddish color predominantly confined to the palpebral conjunctiva with some perilimbal injection but primarily confined to the lower and upper parts of the eye from the 4:00 to 7:00 and 11:00 to 1:00 positions; key to Ophthalmic Observation (Slit-Lamp): AN: Appeared normal; conditions: 0.1% 4 × daily, treated right eye
Experimental: Prior to placement on study, each animal underwent a pre-treatment ophthalmic examination (slit lamp and indirect ophthalmoscopy). Observations were scored according to the McDonald Shadduck system and recorded using a standardized data collection sheet.
Ophthalmic examinations (slit lamp) were performed prior to the first dosing on Days 5, 12, 22, 26, and 33. Ocular findings were scored according to the McDonald Shadduck system and recorded using a standardized data collection sheet.

[4] = test system: primary human corneal epithelial cells; experiment: IL-1β-stimulated cytokine production in primary HCECs (30-cytokine Luminex kit); conditions: 18 h, P<0.05
Experimental: Primary HCECs were seeded in 24-well plates. […] Each treatment was performed in triplicate. Media were collected and used for determination of cytokine content using a 30-cytokine Luminex kit. Cell viability was determined by alamarBlue assay (LP06013).
Median fluorescence intensity (MFI) was used to obtain the concentration of each cytokines in pg/ml based on the standard curve of each cytokine assayed by Luminex. The linear range of the standard curve for each cytokine was used for determination of cytokine concentration. Duplicate values for each sample were averaged. Data were expressed as mean±SD. Statistical analysis was performed using one-way ANOVA-Dunnett's test, and P<0.05 was considered statistically significant.

[5] = 5 min before the first paracentesis, single eyes, listed as Dex
[6] = 5 min before the second paracentesis, single eyes, listed as Dex
[7] = 10 ng/ml IL-1β-stimulated HCECs

SMILES: C[C@@H]1C[C@H]2[C@@H]3CCC4=CC(=O)C=C[C@]4(C)[C@@]3(F)[C@@H](O)C[C@]2(C)[C@@]1(O)C(=O)CO [dexamethasone, reference compound]
- Pupillary diameter T1: −180 min ([1]; 50 μl drops, −180 min (basal), single eyes, listed as Dex): 6.0 mm and 7.0 mm and 5.5 mm and 6.5 mm
- Pupillary diameter T2: −5 min [1, 5]: 5.5 mm and 6.5 mm and 6.0 mm and 7.0 mm and 7.5 mm
- Pupillary diameter T3: +115 min [1, 6]: 5.5 mm and 6.0 mm and 4.5 mm and 5.0 mm and 6.5 mm
- Pupillary diameter Mean Δ(T3 − T1) ([1]; group mean, n=8 eyes): −0.8 mm
- Clinical Score −5 min [2, 5]: 0 and 1
- Clinical Score +115 min [2, 6]: 1 and 3
- Percentage of eyes with clinical score 1 ([2]; +115 min, N=8 eyes): 75%
- Percentage of eyes with clinical score 3 ([2]; +115 min, N=8 eyes): 25%
- Percentage of eyes with clinical score 0 ([2]; −5 min, N=8 eyes): 75%
- Percentage of eyes with clinical score 1 ([2]; −5 min, N=8 eyes): 25%
- Percentage of eyes with clinical score 0 ([2]; −180 min (basal), N=8 eyes): 100%
- Clinical Score −180 min ([2]; −180 min (basal), single eyes): 0
- Levels of PGE2 in aqueous humor, Mean (Prostaglandin E2 (PGE2)): 2.263 ng/mL
- Protein levels in aqueous humor (raw data) (protein in aqueous humor; samples collected at the second paracentesis, single eyes, listed as Dex): 31.31 mg/mL and 31.81 mg/mL and 35.95 mg/mL and 37.15 mg/mL and 32.12 mg/mL and 32.40 mg/mL
- Protein levels in aqueous humor, Mean (protein in aqueous humor; second paracentesis, group mean): 33.457 mg/mL
- PMN numbers in aqueous humor, Mean (Leukocytes (PMN)): 30.000 number/μl
- Conjunctival congestion Score ([3]; Day 5): 1
- Ophthalmic Observation (Slit-Lamp) ([3]; Day 5, 12): AN
- Ophthalmic Observation (Slit-Lamp) ([3]; Day 5, 12, 22): AN
- Ophthalmic Observation (Slit-Lamp) ([3]; Day 5, 12, 22, 26): AN
- Ophthalmic Observation (Slit-Lamp) ([3]; Day 5, 12, 22, 26, 33): AN
- Ophthalmic Observation (Slit-Lamp) ([3]; Day 5, 12, 26, 33): AN
- Ophthalmic Observation (Slit-Lamp) ([3]; Day 12, 22, 26): AN
- Conjunctival congestion Score ([3]; Day 22): 1
- Concentration at which a significant inhibitory effect was observed on IL-6 [4, 7]: 1 nM
- Concentration at which a significant inhibitory effect was observed on MCP-1 [4, 7]: 10 nM
- Concentration at which a significant inhibitory effect was observed on TGF-α [4, 7]: 10 nM
- Concentration at which a significant inhibitory effect was observed on TNF-α [4, 7]: 10 nM
- Concentration at which a significant inhibitory effect was observed on RANTES ([4]; IL-1β-stimulated HCECs): 1 µM
